Laboratory results reported in the supplement of paper PMC11208160.

Experiment: recombinant barcode read abundance after kanamycin selection (control-corrected) (log10(CPM+1)); higher = more efficient recombination; sequences stand for … in AGTGCAGAGAAAATCGGCCAGTTTTCTCTGCCTGCAGTCCGCATGCCGT…AGATTTATGCAGCGGACTGCCTTTCTCCCAAAGTGATAAACCGGACAGTATCATGGACCGGTTTTCCCGGTAATCCGTATTTGCAAGGTTGGTTTCACT; site = the 11-nt target
Description: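 Pooled E. coli target-specificity screen for the IS621 bridge recombinase. Each library plasmid pairs an 11-nt target (CT core) with a bridge RNA whose target-binding loop (9-nt LTG + 4-nt RTG) is reprogrammed; the rest of the 177-nt WT IS621 bridge RNA scaffold is fixed. The plasmid is co-electroporated with a WT donor plasmid; recombinase is induced with 0.1 mM IPTG and recombinants are selected on kanamycin. Recombinant barcodes are sequenced, converted to CPM, averaged over two biological replicates and corrected by the unselected control CPM. Molecule = full bridge RNA written as DNA: LTG = specificity nt 1-9, RTG = reverse complement of specificity nt 8-11, in the WT scaffold.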
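Note: IS621 recombinase and bridge RNA in Escherichia coli cells.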

| Sequence | recombinant barcode read abundance (log10) |
| --- | --- |
| ACGACCGCTTGGGTTCTAACCTGTTGCCT (site ACGAGCGCTAG) | 0.119 |
| ACGACCGCTTGGGTTCTAACCTGTTGCCT (site ACGATCGCTAG) | 0.245 |
| ACGACTACTTGGGTTCTAACCTGTTGCCT (site ACGACTACTAG) | 0.128 |
| ACGACTACTTGGGTTCTAACCTGTTGCCT (site ACGACTCCTAG) | 0.00963 |
| ACGACTACTTGGGTTCTAACCTGTTGCCT (site ACGACTGCTAG) | 0.113 |
| ACGACTACTTGGGTTCTAACCTGTTGCCT (site ACGACTTCTAG) | 0.048 |
| ACGACTGCTTGGGTTCTAACCTGTTGCCT (site ACGACTACTAG) | 0.166 |
| ACGACTGCTTGGGTTCTAACCTGTTGCCT (site ACGACTCCTAG) | 0.163 |
| ACGACTGCTTGGGTTCTAACCTGTTGCCT (site ACGACTGCTAG) | 0.738 |
| ACGACTGCTTGGGTTCTAACCTGTTGCCT (site ACGACTTCTAG) | 0.247 |
| ACGAGAGCTTGGGTTCTAACCTGTTGCCT (site ACAAGAGCTAG) | 0.92 |
| ACGAGAGCTTGGGTTCTAACCTGTTGCCT (site ACCAGAGCTAG) | 0.0692 |
| ACGAGAGCTTGGGTTCTAACCTGTTGCCT (site ACGAGAGCTAG) | 1.11 |
| ACGAGAGCTTGGGTTCTAACCTGTTGCCT (site ACTAGAGCTAG) | 0.135 |
| ACGAGCCCTTGGGTTCTAACCTGTTGCCA (site ACGAGCCCTTG) | 0.666 |
| ACGAGCCCTTGGGTTCTAACCTGTTGCCA (site ACGCACCCTTG) | 0.151 |
| ACGAGGACTTGGGTTCTAACCTGTTGCCG (site ACGAAGACTCG) | 0.232 |
| ACGAGGACTTGGGTTCTAACCTGTTGCCG (site ACGAGGACTCG) | 1.09 |
| ACGAGTACTTGGGTTCTAACCTGTTGCGG (site ACGAGTACTCA) | 0.392 |
| ACGAGTACTTGGGTTCTAACCTGTTGCGG (site ACGAGTACTCC) | 1.82 |
| ACGATTCCTTGGGTTCTAACCTGTTGCTT (site ACGAATCCTAA) | 0.0108 |

| Sequence | recombinant barcode read abundance (log10) |
| --- | --- |
| ACGATTCCTTGGGTTCTAACCTGTTGCTT (site ACGACTCCTAA) | 0.142 |
| ACGATTCCTTGGGTTCTAACCTGTTGCTT (site ACGAGTCCTAA) | 0.0586 |
| ACGATTCCTTGGGTTCTAACCTGTTGCTT (site ACGATTCCTAA) | 0.0242 |
| ACGCAGTCTTGGGTTCTAACCTGTTGCCT (site ACGCAATCTAG) | 0.313 |
| ACGCAGTCTTGGGTTCTAACCTGTTGCCT (site ACGCACTCTAG) | 0.0573 |
| ACGCAGTCTTGGGTTCTAACCTGTTGCCT (site ACGCAGTCTAG) | 0.798 |
| ACGCAGTCTTGGGTTCTAACCTGTTGCCT (site ACGCATTCTAG) | 0.129 |
| ACGGACCCTTGGGTTCTAACCTGTTGCAT (site ACGAACCCTAG) | 0.225 |
| ACGGACCCTTGGGTTCTAACCTGTTGCAT (site ACGGACCCTAT) | 2.82 |
| ACGGAGACTTGGGTTCTAACCTGTTGCAT (site ACGGAGACTAT) | 2.78 |
| ACGGAGACTTGGGTTCTAACCTGTTGCAT (site GTACTACCTCG) | 0.108 |
| ACGGCTCCTTGGGTTCTAACCTGTTGCTG (site ACGACTCCTCA) | 0.0439 |
| ACGGCTCCTTGGGTTCTAACCTGTTGCTG (site ACGCCTCCTCA) | 0.116 |
| ACGGCTCCTTGGGTTCTAACCTGTTGCTG (site ACGGCTCCTCA) | 1.35 |
| ACGGCTCCTTGGGTTCTAACCTGTTGCTG (site ACGTCTCCTCA) | 0.123 |
| ACGGGGCCTTGGGTTCTAACCTGTTGCCG (site ACGGGGCCTCG) | 1.88 |
| ACGGGGCCTTGGGTTCTAACCTGTTGCCG (site GTATATACTAA) | 0.116 |
| ACGGGTACTTGGGTTCTAACCTGTTGCCA (site AAGGGTTCTTG) | 0.355 |
| ACGGGTACTTGGGTTCTAACCTGTTGCCA (site ACGGGTACTTG) | 1.02 |
| ACGGTTGCTTGGGTTCTAACCTGTTGCCT (site ACGGGTGCTAG) | 0.434 |
| ACGGTTGCTTGGGTTCTAACCTGTTGCCT (site ACGGTTGCTAG) | 2.22 |

| Sequence | recombinant barcode read abundance (log10) |
| --- | --- |
| ACGTAATCTTGGGTTCTAACCTGTTGCTT (site ACGTAATCTAA) | 0.207 |
| ACGTAATCTTGGGTTCTAACCTGTTGCTT (site CGGTAATCTAA) | 0.246 |
| ACGTGAACTTGGGTTCTAACCTGTTGCCT (site ACATGAACTAG) | 0.532 |
| ACGTGAACTTGGGTTCTAACCTGTTGCCT (site ACCTGAACTAG) | 0.0714 |
| ACGTGAACTTGGGTTCTAACCTGTTGCCT (site ACGTGAACTAG) | 0.416 |
| ACGTGAACTTGGGTTCTAACCTGTTGCCT (site ACTTGAACTAG) | 0.0355 |
| ACGTGTCCTTGGGTTCTAACCTGTTGCGG (site ACGTGTCCTCC) | 1.88 |
| ACGTGTCCTTGGGTTCTAACCTGTTGCGG (site GGAGAGACTAT) | 0.242 |
| ACGTTGTCTTGGGTTCTAACCTGTTGCCT (site ACATTGTCTAG) | 1.24 |
| ACGTTGTCTTGGGTTCTAACCTGTTGCCT (site ACCTTGTCTAG) | 0.0624 |
| ACGTTGTCTTGGGTTCTAACCTGTTGCCT (site ACGTTGTCTAG) | 0.767 |
| ACGTTGTCTTGGGTTCTAACCTGTTGCCT (site ACTTTGTCTAG) | 0.0891 |
| ACTAAGACTTGGGTTCTAACCTGTTGCTG (site ACTAAGACTCA) | 1.96 |
| ACTAAGACTTGGGTTCTAACCTGTTGCTG (site AGTAAGACTTA) | 0.0302 |
| ACTACTCCTTGGGTTCTAACCTGTTGCGA (site ACTACTCCTTC) | 0.93 |
| ACTACTCCTTGGGTTCTAACCTGTTGCGA (site ACTAGTCCTTG) | 0.119 |
| ACTAGGACTTGGGTTCTAACCTGTTGCGG (site ACTAGGACTAC) | 0.0821 |
| ACTAGGACTTGGGTTCTAACCTGTTGCGG (site ACTAGGACTCC) | 2.93 |
| ACTAGGACTTGGGTTCTAACCTGTTGCGG (site ACTAGGACTGC) | 0.444 |
| ACTAGGACTTGGGTTCTAACCTGTTGCGG (site ACTAGGACTTC) | 0.302 |
| ACTAGTCCTTGGGTTCTAACCTGTTGCAT (site ACTAGTCCTAA) | 0.239 |

| Sequence | recombinant barcode read abundance (log10) |
| --- | --- |
| ACTAGTCCTTGGGTTCTAACCTGTTGCAT (site ACTAGTCCTAC) | 0.0726 |
| ACTAGTCCTTGGGTTCTAACCTGTTGCAT (site ACTAGTCCTAG) | 0.0896 |
| ACTAGTCCTTGGGTTCTAACCTGTTGCAT (site ACTAGTCCTAT) | 1.29 |
| ACTAGTCCTTGGGTTCTAACCTGTTGCGT (site ACTAGTCCTAA) | 0.0427 |
| ACTAGTCCTTGGGTTCTAACCTGTTGCGT (site ACTAGTCCTAC) | 2.25 |
| ACTAGTCCTTGGGTTCTAACCTGTTGCGT (site ACTAGTCCTAG) | 0.133 |
| ACTAGTCCTTGGGTTCTAACCTGTTGCGT (site ACTAGTCCTAT) | 0.894 |
| ACTATAACTTGGGTTCTAACCTGTTGCTT (site ACTATAACTAA) | 0.401 |
| ACTATAACTTGGGTTCTAACCTGTTGCTT (site ACTCTAACTAA) | 0.535 |
| ACTATAACTTGGGTTCTAACCTGTTGCTT (site ACTGTAACTAA) | 0.125 |
| ACTATAACTTGGGTTCTAACCTGTTGCTT (site ACTTTAACTAA) | 0.0487 |
| ACTCACACTTGGGTTCTAACCTGTTGCTT (site ACTCACACTAA) | 1.06 |
| ACTCACACTTGGGTTCTAACCTGTTGCTT (site GGAGCTCCTCG) | 0.00954 |
| ACTCAGACTTGGGTTCTAACCTGTTGCAC (site ACTCAGACTGT) | 1.9 |
| ACTCAGACTTGGGTTCTAACCTGTTGCAC (site GGAGGTCCTCG) | 0.222 |
| ACTCCAGCTTGGGTTCTAACCTGTTGCCT (site ACTCCAGCTAG) | 1.79 |
| ACTCCAGCTTGGGTTCTAACCTGTTGCCT (site TAGTTTACTCT) | 0.0793 |
| ACTCGTTCTTGGGTTCTAACCTGTTGCTT (site ACTCGTTCTAA) | 0.326 |
| ACTCGTTCTTGGGTTCTAACCTGTTGCTT (site GCTAGTTCTAA) | 0.0673 |
